Source: patent US8680159B2, “Bradykinin 1 receptor modulating compounds” (Gruenenthal GmbH, priority 2010, dated 2014)

Each compound was assayed against T1, human B1R receptor (CHO K1 cells stably transfected with the human B1R gene) (Homo sapiens, UniProt P46663) (assay: Functional study on the bradykinin receptor 1 (B1R), Ca2+ fluorescence (Fluo-4) FLIPR/Novostar assay, hB1R cells). Details: CHO-K1, read-out: % Inhibition (h-B1R) at 10 μM.
T1 construct: expressed in transfected cells; host or cells: CHO K1 cells (Chinese hamster ovary), stably transfected
T1 sequence (P46663 1-353): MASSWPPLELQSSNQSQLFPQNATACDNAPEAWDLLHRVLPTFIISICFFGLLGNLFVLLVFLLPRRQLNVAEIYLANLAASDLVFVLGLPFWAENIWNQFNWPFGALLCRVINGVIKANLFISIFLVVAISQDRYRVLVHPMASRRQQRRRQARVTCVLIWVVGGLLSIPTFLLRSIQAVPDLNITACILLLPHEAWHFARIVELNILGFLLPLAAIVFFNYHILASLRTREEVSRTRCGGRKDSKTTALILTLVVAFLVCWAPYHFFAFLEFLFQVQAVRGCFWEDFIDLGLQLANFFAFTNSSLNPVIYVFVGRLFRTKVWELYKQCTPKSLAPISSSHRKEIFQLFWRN
Assay type: cell-based
Experimental: The agonistic or antagonistic action of substances can be quantified on the bradykinin receptor 1 (B1R) of the species human and rat using ectopically expressing cell lines (CHO K1 cells) and with the aid of a Ca^2+-sensitive dye (Fluo-4) using a fluorescent imaging plate reader (FLIPR). The indication in % activation is based on the Ca^2+ signal after addition of Lys-Des-Arg^9-bradykinin (0.5 nM) or Des-Arg^9-bradykinin (100 nM). Antagonists lead to suppression of the Ca^2+ influx after the addition of the agonist. % Inhibition compared with the maximum achievable inhibition is indicated.
The agonistic or antagonistic action of substances can be determined on the bradykinin receptor 1 (B1R) of the species human and rat using the following assay. According to this assay, the increase in intracellular Ca^2+ following administration of a B1R agonist is quantified with the aid of a Ca^2+-sensitive dye (Fluo-4 type, Molecular Probes Europe BV, Leiden, Netherlands) using a Fluorescent Imaging Plate Reader (FLIPR, Molecular Devices, Sunnyvale, USA) and/or using a Novostar (BMG Labtech GmbH, Offenburg, Germany).
Chinese hamster ovary cells (CHO K1 cells) which have been stably transfected with the human B1R gene (hB1R cells) or with the B1R gene of the rat (rB1R cells) are used. For functional studies, the cells are plated out on black 96-well plates having a clear base (BD Biosciences, Heidelberg, Germany or Greiner, Frickenhausen, Germany) in a density of 20,000-35,000 cells/well. The cells are left overnight at 37° C. and with 5% CO2 in culture medium (hB1R cells: Nutrient Mixture Ham's F12, Gibco Invitrogen GmbH, Karlsruhe, Germany or DMEM, Sigma-Aldrich, Taufkirchen, Germany; rB1R cells: D-MEM/F12, Gibco Invitrogen GmbH, Karlsruhe, Germany), with 10 vol. % FBS (fetal bovine serum, Gibco Invitrogen GmbH, Karlsruhe, Germany or PAN Biotech GmbH, Aidenbach, Germany). On the following day, the cells are loaded for 60 minutes at 37° C. with 2.13 μM Fluo-4 (Molecular Probes Europe BV, Leiden, Netherlands) in HBSS buffer (Hank's buffered saline solution, Gibco Invitrogen GmbH, Karlsruhe, Germany) […] (Sigma-Aldrich, Taufkirchen, Germany) and 10 mM HEPES (Sigma-Aldrich, Taufkirchen, Germany). The plates are then washed twice with HBSS buffer, and HBSS buffer additionally containing 0.1% BSA (bovine serum albumin; Sigma-Aldrich, Taufkirchen, Germany), 5.6 mM glucose and 0.05% gelatin (Merck KGaA, Darmstadt, Germany) is added to the plates. After incubation for a further 20 minutes at room temperature, the plates are inserted into the FLIPR or Novostar for Ca^2+ measurement. Alternatively, washing is carried out with buffer A (15 mM HEPES, 80 mM NaCl, 5 mM KCl, 1.2 mM CaCl2, 0.7 mM MgSO4, 2 g/l glucose, 2.5 mM probenecid) followed by loading with buffer A with added 2.5 μM Fluo-4 and 0.025% Pluronic F127 (Sigma-Aldrich, Taufkirchen, Germany). The cells are then washed twice with buffer A and incubated for 30 minutes at room temperature with buffer A additionally containing 0.05% BSA and 0.05% gelatin and are then inserted into the FLIPR or Novostar for Ca^2+ measurement. The Ca^2+-dependent fluorescence is measured before and after the addition of substances (λex=488 nm, λem=540 nm). Quantification is carried out by measuring the highest fluorescence intensity (FC, fluorescence counts) over time.
The FLIPR protocol consists of 2 substance additions, which are pipetted in the FLIPR. In the case of measurements using the Novostar, only the second substance addition is pipetted in the device. Both devices measure the fluorescence intensity over time. Test substances (10 μM) are first pipetted onto the cells and the intracellular Ca^2+ increase is compared with the control (hB1R: Lys-Des-Arg^9-bradykinin>=50 nM; rB1R: Des-Arg^9-bradykinin>=1 μM). This gives the % activation, based on the Ca^2+ signal after addition of Lys-Des-Arg^9-bradykinin (>=50 nM) or Des-Arg^9-bradykinin (>=1 μM). […]

| SMILES | inhibition at 10 µM [%] |
| --- | --- |
| Cc1cc(N2CCC(N(C)C(=O)c3ccc4c(c3)C(N(C)C(=O)c3c(Cl)cccc3C(F)(F)F)CC4)CC2)cc(C)n1 (stereo not drawn) [CC_H-108, 3-[[2-Chloro-6-(trifluoromethyl)-benzoyl]-methyl-amino]-N-[1-(2,6-dimethyl-pyridin-4-yl)-piperidin-4-yl]-N-methyl-2,3-dihydro-1H-indene-5-carboxylic acid amide] | 91 |
| Cc1cc(N2CCC(N(C)C(=O)c3ccc4c(c3)C(NC(=O)c3sccc3Cl)CC4)CC2)cc(C)n1 (stereo not drawn) [CC_H-109, 3-Chloro-N-[6-[[1-(2,6-dimethyl-pyridin-4-yl)-piperidin-4-yl]-methyl-carbamoyl]-2,3-dihydro-1H-inden-1-yl]-thiophene-2-carboxylic acid amide] | 100 |
| Cc1cc(N2CCC(N(C)C(=O)c3ccc4c(c3)C(NS(=O)(=O)c3c(Cl)cccc3C(F)(F)F)CC4)CC2)cc(C)n1 (stereo not drawn) [CC_H-111, 3-[[[2-Chloro-6-(trifluoromethyl)-phenyl]sulfonyl]amino]-N-[1-(2,6-dimethyl-pyridin-4-yl)-piperidin-4-yl]-N-methyl-2,3-dihydro-1H-indene-5-carboxylic acid amide] | 100 |
| Cc1cc(N2CCC(N(C)C(=O)c3ccc4c(c3)C(NC(=O)c3cnccc3C(F)(F)F)CC4)CC2)cc(C)n1 (stereo not drawn) [CC_H-112, N-[6-[[1-(2,6-Dimethyl-pyridin-4-yl)-piperidin-4-yl]-methyl-carbamoyl]-2,3-dihydro-1H-inden-1-yl]-4-(trifluoromethyl)-pyridine-3-carboxylic acid amide] | 100 |
| Cc1cc(N2CCC(N(C)C(=O)c3ccc4c(c3)C(NC(=O)c3c(C)cccc3C)CC4)CC2)cc(C)n1 (stereo not drawn) [CC_H-115, 3-[(2,6-Dimethyl-benzoyl)amino]-N-[1-(2,6-dimethyl-pyridin-4-yl)-piperidin-4-yl]-N-methyl-2,3-dihydro-1H-indene-5-carboxylic acid amide] | 99 |
| O=C(NCCC1CCN(c2ccncc2)CC1)c1ccc2c(c1)C(NC(=O)C1CCCCC1)CC2 (stereo not drawn) [CC_H-116, 3-(Cyclohexanecarbonylamino)-N-[2-(1-pyridin-4-yl-piperidin-4-yl)-ethyl]-2,3-dihydro-1H-indene-5-carboxylic acid amide] | 92 |
| Cc1cc(N2CCC(N(C)C(=O)c3ccc4c(c3)C(NC(=O)c3cncnc3)CC4)CC2)cc(C)n1 (stereo not drawn) [CC_H-118, N-[6-[[1-(2,6-Dimethyl-pyridin-4-yl)-piperidin-4-yl]-methyl-carbamoyl]-2,3-dihydro-1H-inden-1-yl]-pyrimidine-5-carboxylic acid amide] | 89 |
| Cc1cc(N2CCC(N(C)C(=O)c3ccc4c(c3)C(NC(=O)c3cc(F)ccc3Cl)CC4)CC2)cc(C)n1 (stereo not drawn) [CC_H-119, 3-[(2-Chloro-5-fluoro-benzoyl)amino]-N-[1-(2,6-dimethyl-pyridin-4-yl)-piperidin-4-yl]-N-methyl-2,3-dihydro-1H-indene-5-carboxylic acid amide] | 100 |
| Cc1cc(N2CCC(N(C)C(=O)c3ccc4c(c3)C(NC(=O)CCC3CCCC3)CC4)CC2)cc(C)n1 (stereo not drawn) [CC_H-120, 3-(3-Cyclopentyl-propanoylamino)-N-[1-(2,6-dimethyl-pyridin-4-yl)-piperidin-4-yl]-N-methyl-2,3-dihydro-1H-indene-5-carboxylic acid amide] | 100 |
| Cc1cc(N2CCC(N(C)C(=O)c3ccc4c(c3)C(NS(=O)(=O)Cc3ccccc3C(F)(F)F)CC4)CC2)cc(C)n1 (stereo not drawn) [CC_H-121, N-[1-(2,6-Dimethyl-pyridin-4-yl)-piperidin-4-yl]-N-methyl-3-[[[2-(trifluoromethyl)-phenyl]-methylsulfonyl]amino]-2,3-dihydro-1H-indene-5-carboxylic acid amide] | 100 |
| Cc1cc(N2CCC(N(C)C(=O)c3ccc4c(c3)C(NC(=O)CC(C)C)CC4)CC2)cc(C)n1 (stereo not drawn) [CC_H-122, N-[1-(2,6-Dimethyl-pyridin-4-yl)-piperidin-4-yl]-N-methyl-3-(3-methyl-butanoylamino)-2,3-dihydro-1H-indene-5-carboxylic acid amide] | 100 |
| Cc1cc(N2CCC(N(C)C(=O)c3ccc4c(c3)C(NC(=O)C3CCCCC3)CC4)CC2)cc(C)n1 (stereo not drawn) [CC_H-123, 3-(Cyclohexanecarbonylamino)-N-[1-(2,6-dimethyl-pyridin-4-yl)-piperidin-4-yl]-N-methyl-2,3-dihydro-1H-indene-5-carboxylic acid amide] | 100 |
| CN(C(=O)c1ccc2c(c1)C(NC(=O)c1cncnc1)CCO2)C1CCN(c2ccncc2)CC1 (stereo not drawn) [CC_H-124, N-[6-[Methyl-(1-pyridin-4-yl-piperidin-4-yl)-carbamoyl]-3,4-dihydro-2H-chromen-4-yl]-pyrimidine-5-carboxylic acid amide] | 68 |
| CN(C(=O)c1ccc2c(c1)C(NS(=O)(=O)Cc1ccccc1C(F)(F)F)CCC2)C1CCN(c2ccncc2)CC1 (stereo not drawn) [CC_H-125, N-Methyl-N-(1-pyridin-4-yl-piperidin-4-yl)-8-[[[2-(trifluoromethyl)-phenyl]-methylsulfonyl]amino]-5,6,7,8-tetrahydro-naphthalene-2-carboxylic acid amide] | 100 |
| CN(C(=O)NC1CCc2cc(C(=O)N(C)C3CCN(c4ccncc4)CC3)ccc21)c1ccccc1Cl (stereo not drawn) [CC_H-126, 1-[[(2-Chlorophenyl)-methyl-carbamoyl]amino]-N-methyl-N-(1-pyridin-4-yl-piperidin-4-yl)-2,3-dihydro-1H-indene-5-carboxylic acid amide] | 100 |
| CN(C(=O)c1ccc2c(c1)CCC2NC(=O)c1c(Cl)cccc1C(F)(F)F)C1CCN(c2ccncc2)CC1 (stereo not drawn) [CC_H-127, 1-[[2-Chloro-6-(trifluoromethyl)-benzoyl]amino]-N-methyl-N-(1-pyridin-4-yl-piperidin-4-yl)-2,3-dihydro-1H-indene-5-carboxylic acid amide] | 95 |
| O=C(NCCC1CCN(c2ccncc2)CC1)c1ccc2c(c1)C(NS(=O)(=O)Cc1ccccc1C(F)(F)F)CC2 (stereo not drawn) [CC_H-128, N-[2-(1-Pyridin-4-yl-piperidin-4-yl)-ethyl]-3-[[[2-(trifluoromethyl)-phenyl]-methylsulfonyl]amino]-2,3-dihydro-1H-indene-5-carboxylic acid amide] | 99 |
| Cc1cc(N2CCC(N(C)C(=O)c3ccc4c(c3)C(N(C)S(=O)(=O)Cc3ccccc3C(F)(F)F)CC4)CC2)cc(C)n1 (stereo not drawn) [CC_H-129, N-[1-(2,6-Dimethyl-pyridin-4-yl)-piperidin-4-yl]-N-methyl-3-[methyl-[[2-(trifluoromethyl)-phenyl]-methylsulfonyl]-amino]-2,3-dihydro-1H-indene-5-carboxylic acid amide] | 100 |
